In PMC7316994, “In Vitro Pharmacological Profile of a New Small Molecule Bradykinin B2 Receptor Antagonist” (Frontiers in Pharmacology, 2020):

What was measured:
dog B2 receptor = target: T1, dog B2 receptor (Canis lupus familiaris, UniProt Q9BDQ4); assay: Ca^2+ mobilization assay, HEK293T cells; format: cell-based
T1 sequence (Q9BDQ4 1-392): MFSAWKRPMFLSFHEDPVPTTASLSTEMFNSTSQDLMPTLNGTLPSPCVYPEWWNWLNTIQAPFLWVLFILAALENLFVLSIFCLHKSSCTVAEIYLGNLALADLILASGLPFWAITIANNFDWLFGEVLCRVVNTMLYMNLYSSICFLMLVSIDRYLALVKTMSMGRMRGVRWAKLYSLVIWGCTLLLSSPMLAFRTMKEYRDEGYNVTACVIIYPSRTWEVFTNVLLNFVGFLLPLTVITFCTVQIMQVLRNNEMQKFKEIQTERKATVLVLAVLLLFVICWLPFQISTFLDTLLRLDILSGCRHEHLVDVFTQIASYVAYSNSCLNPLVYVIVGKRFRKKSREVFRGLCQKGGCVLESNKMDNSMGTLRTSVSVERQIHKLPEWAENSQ

Adenosine A3 = target: T2, Adenosine A3 (Homo sapiens, UniProt P0DMS8); assay: radioligand binding (Table S2); conditions: [125I] AB-MECA, Human recombinant HEK-293 cells
T2 sequence (P0DMS8 1-318): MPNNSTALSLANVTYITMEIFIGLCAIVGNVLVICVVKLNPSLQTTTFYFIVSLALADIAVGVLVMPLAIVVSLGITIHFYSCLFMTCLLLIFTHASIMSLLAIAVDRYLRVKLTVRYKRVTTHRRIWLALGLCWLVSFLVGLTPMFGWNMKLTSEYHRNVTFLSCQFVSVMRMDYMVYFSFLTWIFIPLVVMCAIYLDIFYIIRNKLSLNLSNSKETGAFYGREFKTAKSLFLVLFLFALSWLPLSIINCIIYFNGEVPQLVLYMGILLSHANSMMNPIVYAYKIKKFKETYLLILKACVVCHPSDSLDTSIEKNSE

Bombesin BB1 = target: T3, Bombesin BB1 (Homo sapiens, UniProt P28336); assay: radioligand binding (Table S2); conditions: [125I] [Tyr4]-bombesin, Human recombinant CHO cells
T3 construct: host or cells: CHO cells

[1] = target: Calcitonin gene related peptide CGRP (Homo sapiens, UniProt O60894+Q16602); assay: radioligand binding (Table S2); conditions: [125I] hCGRPα, Human recombinant CHO cells
Chain of Calcitonin gene related peptide CGRP (Q16602 23-461): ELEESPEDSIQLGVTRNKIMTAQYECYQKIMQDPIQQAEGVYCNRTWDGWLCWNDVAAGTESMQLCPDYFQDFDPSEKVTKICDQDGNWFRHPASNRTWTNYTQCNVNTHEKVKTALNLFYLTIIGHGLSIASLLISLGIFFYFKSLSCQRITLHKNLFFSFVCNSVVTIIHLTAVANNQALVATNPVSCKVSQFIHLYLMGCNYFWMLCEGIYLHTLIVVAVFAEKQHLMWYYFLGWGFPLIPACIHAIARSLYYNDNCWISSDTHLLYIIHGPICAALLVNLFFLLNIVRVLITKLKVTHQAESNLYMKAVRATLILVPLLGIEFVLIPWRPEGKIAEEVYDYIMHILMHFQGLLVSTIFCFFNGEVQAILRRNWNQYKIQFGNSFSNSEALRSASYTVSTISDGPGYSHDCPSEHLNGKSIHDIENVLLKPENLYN
Chain of Calcitonin gene related peptide CGRP (O60894 27-148 partner): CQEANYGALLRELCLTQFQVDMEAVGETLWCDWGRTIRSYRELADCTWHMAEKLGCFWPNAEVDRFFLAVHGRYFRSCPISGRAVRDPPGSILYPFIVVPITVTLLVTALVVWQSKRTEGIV

Chemokine CCR2B = target: T4, Chemokine CCR2B (Homo sapiens, UniProt P41597); assay: radioligand binding (Table S2); conditions: [125I] MCP-1, Human recombinant CHO-K1 cells
T4 construct: host or cells: CHO-K1 cells
T4 sequence (P41597 1-360 isoform P41597-2): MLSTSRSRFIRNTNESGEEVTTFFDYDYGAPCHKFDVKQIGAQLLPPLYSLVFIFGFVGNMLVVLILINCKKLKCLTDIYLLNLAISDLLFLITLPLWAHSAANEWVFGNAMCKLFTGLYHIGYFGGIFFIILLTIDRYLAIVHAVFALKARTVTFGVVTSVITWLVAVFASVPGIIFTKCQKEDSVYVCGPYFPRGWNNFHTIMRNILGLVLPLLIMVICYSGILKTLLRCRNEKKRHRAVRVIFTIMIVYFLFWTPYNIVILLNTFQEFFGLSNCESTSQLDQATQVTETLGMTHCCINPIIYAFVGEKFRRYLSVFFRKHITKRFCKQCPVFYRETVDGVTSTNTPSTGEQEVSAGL

[2] = target: T5, Corticotropin-releasing hormone receptor CRF1 (Homo sapiens, UniProt P34998); assay: radioligand binding (Table S2); conditions: [125I] Sauvagine, Human recombinant CHO cells
T5 construct: host or cells: CHO cells
T5 sequence (P34998 24-415): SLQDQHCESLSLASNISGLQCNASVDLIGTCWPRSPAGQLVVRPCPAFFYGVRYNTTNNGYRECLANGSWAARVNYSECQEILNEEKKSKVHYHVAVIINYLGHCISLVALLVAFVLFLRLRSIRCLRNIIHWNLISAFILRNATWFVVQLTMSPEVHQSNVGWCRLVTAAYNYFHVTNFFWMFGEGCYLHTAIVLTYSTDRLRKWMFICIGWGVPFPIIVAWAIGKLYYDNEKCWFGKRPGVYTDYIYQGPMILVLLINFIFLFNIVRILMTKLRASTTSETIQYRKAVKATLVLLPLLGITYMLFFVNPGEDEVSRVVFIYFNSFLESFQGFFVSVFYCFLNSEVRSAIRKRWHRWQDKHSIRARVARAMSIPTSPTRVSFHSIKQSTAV

Histamine H4 = target: T6, Histamine H4 (Homo sapiens, UniProt Q9H3N8); assay: radioligand binding (Table S2); conditions: [3H] Histamine, Human recombinant HEK-293 cells
T6 construct: host or cells: HEK-293 cells
T6 sequence (Q9H3N8 whole entry): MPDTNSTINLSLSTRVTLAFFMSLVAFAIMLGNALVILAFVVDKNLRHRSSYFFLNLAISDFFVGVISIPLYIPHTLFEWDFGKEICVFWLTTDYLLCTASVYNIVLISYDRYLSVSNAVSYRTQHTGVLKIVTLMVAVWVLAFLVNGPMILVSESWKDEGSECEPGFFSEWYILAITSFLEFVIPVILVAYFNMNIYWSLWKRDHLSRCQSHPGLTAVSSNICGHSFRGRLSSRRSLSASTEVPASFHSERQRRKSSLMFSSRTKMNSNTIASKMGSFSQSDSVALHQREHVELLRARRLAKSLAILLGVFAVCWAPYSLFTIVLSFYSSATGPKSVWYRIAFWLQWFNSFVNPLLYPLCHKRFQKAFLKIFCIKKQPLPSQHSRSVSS

Melanocortin MC5 = target: T7, Melanocortin MC5 (Homo sapiens, UniProt P33032); assay: radioligand binding (Table S2); conditions: [125I] NDP-α-MSH, Human recombinant CHO cells
T7 construct: host or cells: CHO cells
T7 sequence (P33032 whole entry): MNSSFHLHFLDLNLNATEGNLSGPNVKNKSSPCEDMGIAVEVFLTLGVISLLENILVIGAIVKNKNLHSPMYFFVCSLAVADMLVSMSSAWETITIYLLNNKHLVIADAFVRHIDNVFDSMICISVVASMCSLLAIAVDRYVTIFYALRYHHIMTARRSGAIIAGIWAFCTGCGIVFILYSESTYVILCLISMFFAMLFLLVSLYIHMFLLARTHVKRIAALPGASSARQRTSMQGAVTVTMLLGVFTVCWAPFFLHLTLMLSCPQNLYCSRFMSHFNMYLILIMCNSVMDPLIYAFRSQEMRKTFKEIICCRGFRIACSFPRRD

Melatonin MT1 (ML1A) = target: T8, Melatonin MT1 (ML1A) (Homo sapiens, UniProt P48039); assay: radioligand binding (Table S2); conditions: [125I] 2-iodomelatonin, Human recombinant CHO cells
T8 construct: host or cells: CHO cells

[3] = target: Nicotinic acetylcholine α1, bungarotoxin (Homo sapiens, UniProt P02708+P07510+Q07001); assay: biochemical; format: binding; conditions: read-out: % Inhibition @ 10 µM
Chain of Nicotinic acetylcholine α1, bungarotoxin (P02708 21-457): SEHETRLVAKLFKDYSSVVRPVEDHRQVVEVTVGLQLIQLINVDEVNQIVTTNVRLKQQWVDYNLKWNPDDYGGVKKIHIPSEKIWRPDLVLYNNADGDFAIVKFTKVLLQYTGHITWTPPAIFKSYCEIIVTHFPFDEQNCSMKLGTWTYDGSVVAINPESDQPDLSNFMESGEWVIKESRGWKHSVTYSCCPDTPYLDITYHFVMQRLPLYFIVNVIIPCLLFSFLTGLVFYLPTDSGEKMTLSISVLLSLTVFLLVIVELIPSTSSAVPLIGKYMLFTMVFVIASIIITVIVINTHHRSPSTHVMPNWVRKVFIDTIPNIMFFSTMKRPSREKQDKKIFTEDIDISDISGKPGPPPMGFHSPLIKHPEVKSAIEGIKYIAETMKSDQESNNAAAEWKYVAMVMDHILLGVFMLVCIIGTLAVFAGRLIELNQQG
Chain of Nicotinic acetylcholine α1, bungarotoxin (P07510 23-517): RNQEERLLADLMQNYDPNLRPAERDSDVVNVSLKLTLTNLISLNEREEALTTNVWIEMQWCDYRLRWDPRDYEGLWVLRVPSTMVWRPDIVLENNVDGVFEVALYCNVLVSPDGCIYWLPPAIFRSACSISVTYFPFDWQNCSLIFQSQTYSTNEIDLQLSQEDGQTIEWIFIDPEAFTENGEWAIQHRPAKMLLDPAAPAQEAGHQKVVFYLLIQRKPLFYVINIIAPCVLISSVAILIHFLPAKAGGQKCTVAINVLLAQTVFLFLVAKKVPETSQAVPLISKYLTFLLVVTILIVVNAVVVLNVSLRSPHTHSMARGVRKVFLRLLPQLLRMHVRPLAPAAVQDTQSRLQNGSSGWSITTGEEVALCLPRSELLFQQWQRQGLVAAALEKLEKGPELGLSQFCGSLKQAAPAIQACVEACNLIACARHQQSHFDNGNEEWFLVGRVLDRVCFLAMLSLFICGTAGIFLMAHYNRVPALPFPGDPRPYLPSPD
Chain of Nicotinic acetylcholine α1, bungarotoxin (Q07001 22-517): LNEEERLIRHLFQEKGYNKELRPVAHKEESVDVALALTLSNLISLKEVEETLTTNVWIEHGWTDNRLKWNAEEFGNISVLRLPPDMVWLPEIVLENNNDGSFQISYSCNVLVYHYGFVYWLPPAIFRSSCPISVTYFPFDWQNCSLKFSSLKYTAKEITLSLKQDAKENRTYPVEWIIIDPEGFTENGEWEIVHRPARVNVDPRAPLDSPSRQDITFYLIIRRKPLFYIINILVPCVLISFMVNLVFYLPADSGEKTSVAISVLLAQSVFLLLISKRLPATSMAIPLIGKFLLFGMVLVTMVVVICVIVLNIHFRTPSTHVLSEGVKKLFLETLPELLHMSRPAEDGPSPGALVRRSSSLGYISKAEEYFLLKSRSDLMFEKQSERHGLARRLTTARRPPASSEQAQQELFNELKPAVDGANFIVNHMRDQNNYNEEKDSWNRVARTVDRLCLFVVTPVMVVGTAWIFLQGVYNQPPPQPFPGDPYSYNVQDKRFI
Chain of Nicotinic acetylcholine α1, bungarotoxin (P11230 24-501, further chain): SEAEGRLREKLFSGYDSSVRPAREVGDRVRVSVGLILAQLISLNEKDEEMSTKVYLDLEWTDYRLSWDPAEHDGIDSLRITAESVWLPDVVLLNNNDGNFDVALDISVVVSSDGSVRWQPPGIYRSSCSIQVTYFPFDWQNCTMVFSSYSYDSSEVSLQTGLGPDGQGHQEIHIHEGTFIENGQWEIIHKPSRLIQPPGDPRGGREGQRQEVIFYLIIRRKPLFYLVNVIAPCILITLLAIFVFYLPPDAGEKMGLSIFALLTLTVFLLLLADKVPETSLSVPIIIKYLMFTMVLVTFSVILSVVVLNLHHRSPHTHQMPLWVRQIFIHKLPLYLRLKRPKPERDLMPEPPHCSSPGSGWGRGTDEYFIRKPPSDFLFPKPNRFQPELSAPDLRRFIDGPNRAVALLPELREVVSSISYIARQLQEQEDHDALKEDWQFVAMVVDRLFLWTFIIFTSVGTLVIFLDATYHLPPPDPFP

[4] = target: T9, Platelet-activating factor PAF (Homo sapiens, UniProt P25105); assay: radioligand binding (Table S2); conditions: [3H] C16-PAF, Human recombinant CHO cells
T9 construct: host or cells: CHO cells

[5] = tested on: Potassium channel voltage gated KV channel; format: binding; conditions: [125I] α-dendrotoxin, Rat cerebral cortex
Prostanoid FP = target: T10, Prostanoid FP (Homo sapiens, UniProt P43088); assay: radioligand binding (Table S2); conditions: [3H] Prostaglandin F2α, Human recombinant HEK-293 cells
T10 construct: host or cells: HEK-293 cells

PDE5 (non-selective) = PDE5 (non-selective) (Homo sapiens, UniProt O76074); assay: enzyme assay (Table S2); format: biochemical; conditions: Human platelets, [3H]cGMP + cGMP (1 µM)
PDGFRα kinase = target: T11, PDGFRα kinase (Homo sapiens, UniProt P16234); assay: enzyme assay (Table S2); format: biochemical; conditions: ATP + Ulight-TK peptide (100 nM), LANCE
T11 construct: Eurofins (assay provider)

PKCα = PKCα (Homo sapiens, UniProt P17252); assay: enzyme assay (Table S2); format: biochemical; conditions: HTRF
Caco-2 cell monolayer = conditions: human, Caco-2, 60 min, 10 µM
in vitro = conditions: human, Caco-2
[6] = target: T12, cynomolgus monkey B2 receptor (Macaca fascicularis, UniProt A0A7N9CWN6); assay: cell-based
T12 sequence (A0A7N9CWN6 1-391): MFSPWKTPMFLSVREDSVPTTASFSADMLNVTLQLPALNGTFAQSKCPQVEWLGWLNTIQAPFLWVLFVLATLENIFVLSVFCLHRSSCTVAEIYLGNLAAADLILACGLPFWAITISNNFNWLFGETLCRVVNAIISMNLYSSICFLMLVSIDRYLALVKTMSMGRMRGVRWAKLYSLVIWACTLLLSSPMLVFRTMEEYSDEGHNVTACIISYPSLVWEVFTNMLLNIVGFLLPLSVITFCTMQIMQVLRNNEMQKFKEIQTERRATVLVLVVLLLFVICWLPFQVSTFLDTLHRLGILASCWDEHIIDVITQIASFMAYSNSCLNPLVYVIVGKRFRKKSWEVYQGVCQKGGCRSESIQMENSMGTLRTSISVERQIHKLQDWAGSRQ

Adrenergic β2 = Adrenergic β2 (Homo sapiens, UniProt P07550); assay: radioligand binding (Table S2); conditions: read-out: % Inhibition @ 10 µM
Angiotensine AT1 = Angiotensine AT1 (Homo sapiens, UniProt P30556); assay: radioligand binding (Table S2); conditions: read-out: % Inhibition @ 10 µM
Glucagon = Glucagon (Homo sapiens, UniProt P47871); assay: radioligand binding (Table S2); conditions: read-out: % Inhibition @ 10 µM
Chain of Glucagon (P47871 26-477): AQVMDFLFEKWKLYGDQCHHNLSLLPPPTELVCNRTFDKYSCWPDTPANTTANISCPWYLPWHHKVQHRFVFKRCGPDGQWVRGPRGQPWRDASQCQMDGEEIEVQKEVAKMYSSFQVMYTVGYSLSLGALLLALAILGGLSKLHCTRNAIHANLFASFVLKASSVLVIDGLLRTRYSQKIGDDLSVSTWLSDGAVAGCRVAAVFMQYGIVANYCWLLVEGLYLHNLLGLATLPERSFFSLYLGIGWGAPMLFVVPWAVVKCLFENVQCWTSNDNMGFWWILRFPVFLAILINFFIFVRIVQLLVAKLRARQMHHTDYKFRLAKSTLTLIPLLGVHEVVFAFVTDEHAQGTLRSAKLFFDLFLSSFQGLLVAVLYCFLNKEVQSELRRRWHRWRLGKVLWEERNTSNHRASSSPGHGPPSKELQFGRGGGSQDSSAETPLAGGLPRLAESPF

Muscarinic M5 = Muscarinic M5 (Homo sapiens, UniProt P08912); assay: radioligand binding (Table S2); conditions: read-out: % Inhibition @ 10 µM
Chain of Muscarinic M5 (P08912 whole entry): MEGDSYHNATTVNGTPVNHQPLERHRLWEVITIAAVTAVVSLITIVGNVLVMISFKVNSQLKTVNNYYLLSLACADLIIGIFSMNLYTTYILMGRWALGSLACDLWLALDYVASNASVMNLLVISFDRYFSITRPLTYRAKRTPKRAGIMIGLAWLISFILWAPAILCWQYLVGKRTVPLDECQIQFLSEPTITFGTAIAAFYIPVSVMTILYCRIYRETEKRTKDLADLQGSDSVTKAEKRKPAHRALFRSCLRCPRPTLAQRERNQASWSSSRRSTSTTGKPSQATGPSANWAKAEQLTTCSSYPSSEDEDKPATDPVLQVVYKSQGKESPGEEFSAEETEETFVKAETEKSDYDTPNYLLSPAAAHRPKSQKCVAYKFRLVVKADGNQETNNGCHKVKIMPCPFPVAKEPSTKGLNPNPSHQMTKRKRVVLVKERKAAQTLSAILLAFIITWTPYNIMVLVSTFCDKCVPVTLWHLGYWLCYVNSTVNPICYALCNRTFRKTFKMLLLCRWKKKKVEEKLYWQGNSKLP

Cc1cc(-c2ncnn2C)c2cccc(OCc3c(Cl)cc(F)cc3[C@H](C)NC(=O)COC(F)F)c2n1 [Compound 3, (S)-N-(1-(3-chloro-5-fluoro-2-((2-methyl-4-(1-methyl-1H-1,2,4-triazol-5-yl)quinolin-8-yloxy)methyl)phenyl)ethyl)-2-(difluoromethoxy)acetamide]
IC50 (dog B2 receptor): ~7600 nM | Kb (dog B2 receptor): ~2700 nM | inhibition at 10 µM (Adenosine A3): 39.8% | inhibition at 10 µM (Bombesin BB1): 6.7% | inhibition at 10 µM [1]: -26.1% | inhibition at 10 µM (Chemokine CCR2B): 1% | % Inhibition @ 10 µM [2]: 74% | inhibition at 10 µM [2]: 73.5% | inhibition at 10 µM (Histamine H4): -2.8% | inhibition at 10 µM (Melanocortin MC5): -9.6% | inhibition at 10 µM (Melatonin MT1 (ML1A)): 15.3% | inhibition at 10 µM [3]: -1% | inhibition at 10 µM [4]: 25% | % Inhibition @ 10 µM [5]: 2.3% | inhibition at 10 µM (Prostanoid FP): 19% | inhibition at 10 µM (PDE5 (non-selective)): 15.5% | inhibition at 10 µM (PDGFRα kinase): -2.6% | inhibition at 10 µM (PKCα): 1.4% | Caco-2 AB, apparent permeation rate apical to basolateral direction (Caco-2 cell monolayer): > 10^-5 cm/s | Papp A→B at 60 min, 10 µM (in vitro): 17.3 ×10⁻⁶ cm/s | Papp B→A at 60 min, 10 µM (in vitro): 17.6 ×10⁻⁶ cm/s | IC50 [6]: 6.25 nM | Kb [6]: 1.36 nM | inhibition at 10 µM (Adrenergic β2): 3% | inhibition at 10 µM (Angiotensine AT1): -4.1% | inhibition at 10 µM (Glucagon): -0.6% | inhibition at 10 µM (Muscarinic M5): 5.1%
